Assay results taken from US20260374773A1, “MULTI-CYCLIC IRAK AND FLT3 INHIBITING COMPOUNDS AND USES THEREOF” (CHILDREN'S HOSPITAL MEDICAL CENTER, priority 2022, published 2026).

Legend:
FLT3 = molecular target: T1, FLT3 (Homo sapiens, UniProt P36888); test: NanoBRET target engagement assay in HEK-293 cells, FLT3; assay type: cell-based; conditions: live HEK-293 cells, 1 h
T1 sequence (P36888 27-993): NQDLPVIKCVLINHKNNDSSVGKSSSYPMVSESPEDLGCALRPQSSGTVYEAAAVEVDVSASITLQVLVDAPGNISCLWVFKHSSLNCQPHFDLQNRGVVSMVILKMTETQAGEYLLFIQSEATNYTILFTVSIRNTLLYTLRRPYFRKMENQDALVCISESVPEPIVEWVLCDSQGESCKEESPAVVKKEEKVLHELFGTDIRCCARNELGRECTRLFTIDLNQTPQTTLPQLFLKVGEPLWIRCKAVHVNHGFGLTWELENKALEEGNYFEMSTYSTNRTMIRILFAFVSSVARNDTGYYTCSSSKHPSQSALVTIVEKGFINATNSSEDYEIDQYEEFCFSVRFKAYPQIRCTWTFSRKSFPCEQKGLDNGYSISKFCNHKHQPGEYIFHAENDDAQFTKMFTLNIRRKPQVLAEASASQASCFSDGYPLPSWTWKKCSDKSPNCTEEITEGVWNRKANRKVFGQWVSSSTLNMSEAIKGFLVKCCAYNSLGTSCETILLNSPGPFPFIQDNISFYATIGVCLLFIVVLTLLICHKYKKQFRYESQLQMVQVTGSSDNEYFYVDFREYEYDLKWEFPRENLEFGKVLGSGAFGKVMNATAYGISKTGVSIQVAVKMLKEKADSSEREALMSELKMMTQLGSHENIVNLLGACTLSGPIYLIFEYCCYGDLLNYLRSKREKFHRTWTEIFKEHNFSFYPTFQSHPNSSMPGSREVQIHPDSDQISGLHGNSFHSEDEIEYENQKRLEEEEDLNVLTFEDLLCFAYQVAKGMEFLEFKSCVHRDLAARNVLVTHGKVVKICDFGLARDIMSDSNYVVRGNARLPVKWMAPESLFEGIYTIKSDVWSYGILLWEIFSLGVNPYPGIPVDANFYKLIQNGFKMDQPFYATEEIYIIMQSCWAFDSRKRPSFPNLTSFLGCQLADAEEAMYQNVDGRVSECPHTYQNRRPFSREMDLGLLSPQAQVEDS
Excerpt: (§1) The NanoBRET assay measures kinase engagement in real time in the context of the intact cell. Unlike the previously described biochemical kinase assay methodology, the NanoBRET assay measures the binding and activity characteristics under equilibrium conditions using full-length kinases in the presence of cellular concentrations of ATP in live, uncompromised cells. As such, the assay provides a more relevant assessment of kinase potency and selectivity that would be expected to be observed in the native cellular environment, where potency is often considerably lower than that observed in the isolated biochemical assays (Vasta, J. D. et al., (2018) Cell Chem. Biol. 25, 206-214). The assay uses a Kinase-NanoLuc® fusion vector expressing a kinase protein to which a luciferase tag has been added, a cell-permeant fluorescent NanoBRET™ tracer, a NanoLuc® substrate, and an extracellular NanoLuc® inhibitor. Upon expression of the luciferase-tagged kinase, cells will produce a strong BRET signal only in the presence of the NanoBRET™ tracer. The extracellular NanoLuc® inhibitor ensures that the BRET signal observed emanates only from live cells. Because the BRET signal has tight distance constraints, addition of the test compound will decrease the BRET signal if the compound competes with the NanoBRET™ tracer for binding to the kinase domain. Under the appropriate tracer conditions established by the manufacturer, quantitative intracellular affinity and relative potency can then be determined using Mass Action model equations.
(§2) HEK-293 cells were purchased from ATCC. FuGENEHD Transfection Reagent, Kinase-NanoLucfusion plasmids, Transfection Carrier DNA, NanoBRETTracers and dilution buffer, NanoBRETNano-Glo Substrate, Extracellular NanoLucInhibitor were obtained from Promega.
(§3) Assays were conducted following Promega assay protocol with some modifications. HEK-293 Cells were transiently transfected with Kinase-NanoLucFusion Vector DNA by FuGENEHD Transfection Reagent. Testing compounds were delivered into 384 well assay plate by Echo 550 (LabcyteInc, Sunnyvale, CA). Transfected cells were harvested and mixed with NanoBRETTracer Reagent and dispensed into 384 well plates and incubated at 37 °C in 5% CO2 cell culture incubator for 1 hour. The NanoBRETNano-Glo Substrate plus Extracellular NanoLucInhibitor Solution were added into the wells of the assay plate and incubated for 2-3 minutes at room temperature. The donor emission wavelength (460 nm) and acceptor emission wavelength (600 nm) were measured in the En Visionplate reader. The BRET Ratios were calculated.
(§4) BRET Ratio=[(Acceptor sample÷Donor sample)−(Acceptor no-tracer control÷Donor no-tracer control)].
(§5) The IC50 values of compounds were calculated with Prism GraphPad program.
(§6) • 1). Cultivate HEK-293 cells (70-80% confluence) appropriately prior to assay. Trypsinize and collect HEK-293 cells. • 2). Prepare lipid:DNA complexes as follows: • a. Prepare a 10 μg/ml solution of DNA in Opti-MEM without serum that consists of the following ratios of carrier DNA and DNA encoding NanoLuc® fusion. 9.0 μg/mL of Transfection Carrier DNA, 1.0 μg/mL of NanoLuc fusion vector DNA and 1 mL of Opti-MEM without phenol red. Mix thoroughly. • b. Add 30 μl of FuGENE HD Transfection Reagent into each milliliter of DNA mixture to form lipid:DNA complex. • c. Mix by inversion 10 times. • d. Incubate at ambient temperature for 20 minutes to allow complexes to form. • 3). In a sterile, conical tube, mix 1 part of lipid:DNA complex with 20 parts of HEK-293 cells in suspension. Mix gently by inversion 5 times. • 4). Dispense cells+lipid:DNA complex into a sterile tissue culture dish and incubate for 22-24 hours.
(§7) Each test compound is delivered from the compound source plate to the wells of 384-well white NBS plate by Echo 550.
(§8) 3. Preparation of Cells with NanoBRET™ Tracer Reagent • 1). Remove medium from dish with transfected HEK-293 cells via aspiration, trypsinize and allow cells to dissociate from the dish. • 2). […]

IRAK4 = molecular target: T2, IRAK4 (Homo sapiens, UniProt Q9NWZ3); test: NanoBRET target engagement assay in HEK-293 cells, IRAK4; assay type: cell-based; conditions: live HEK-293 cells, 1 h
T2 sequence (Q9NWZ3 1-460): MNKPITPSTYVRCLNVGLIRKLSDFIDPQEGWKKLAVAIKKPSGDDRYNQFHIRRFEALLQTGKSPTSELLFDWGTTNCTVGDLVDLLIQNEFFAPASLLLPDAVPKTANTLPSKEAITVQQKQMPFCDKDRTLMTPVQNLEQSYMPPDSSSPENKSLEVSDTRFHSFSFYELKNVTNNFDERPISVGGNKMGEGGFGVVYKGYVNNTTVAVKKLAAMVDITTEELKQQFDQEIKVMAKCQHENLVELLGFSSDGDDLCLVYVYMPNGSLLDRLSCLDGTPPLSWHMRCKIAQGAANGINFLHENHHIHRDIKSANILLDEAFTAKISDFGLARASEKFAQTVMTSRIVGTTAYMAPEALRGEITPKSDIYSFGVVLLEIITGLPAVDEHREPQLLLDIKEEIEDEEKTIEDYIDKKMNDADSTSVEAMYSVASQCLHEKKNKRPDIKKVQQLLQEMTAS
Excerpt: as §1, §2, §3, §4, §5, §6, §7, §8

SMILES	IC50 (FLT3; Table 20)	IC50 (IRAK4; Table 20)	IC50 (FLT3; Table 14)	IC50 (IRAK4; Table 14)
COc1cn2ncc(-c3nc(N[C@H]4CNCC[C@@H]4F)ncc3F)c2nc1C(C)(C)O [Compound 6a, 2-(3-(5-fluoro-2-(((3S,4S)-4-fluoropiperidin-3-yl)amino)pyrimidin-4-yl)-6-methoxypyrazolo[1,5-a]pyrimidin-5-yl)propan-2-ol]	12 nM	< 0.5 nM	–	–
COc1cn2ncc(-c3nc(N[C@H]4CNC[C@@H]4F)ncc3F)c2nc1C1CC1 [Compound 13a, 4-(5-cyclopropyl-6-methoxypyrazolo[1,5-a]pyrimidin-3-yl)-5-fluoro-N-((3S,4S)-4-fluoropyrrolidin-3-yl)pyrimidin-2-amine]	0.5 nM	< 0.5 nM	–	–
COc1cn2ncc(-c3nc(N[C@@H]4CCCNC4)ncc3F)c2nc1C1CC1 [Compound 14a, (R)-4-(5-cyclopropyl-6-methoxypyrazolo[1,5-a]pyrimidin-3-yl)-5-fluoro-N-(piperidin-3-yl)pyrimidin-2-amine]	< 0.5 nM	< 0.5 nM	–	–
COc1cn2ncc(-c3ccnc(N[C@H]4CNCC[C@@H]4F)n3)c2nc1C1CC1 [Compound 7a, 4-(5-cyclopropyl-6-methoxypyrazolo[1,5-a]pyrimidin-3-yl)-N-((3S,4S)-4-fluoropiperidin-3-yl)pyrimidin-2-amine]	9 nM	0.8 nM	–	–
COc1cn2ncc(-c3ccc(F)c(N[C@H]4CNCC[C@@H]4F)n3)c2nc1C1CC1 [Compound 6, 6-(5-cyclopropyl-6-methoxypyrazolo[1,5-a]pyrimidin-3-yl)-3-fluoro-N-((3S,4S)-4-fluoropiperidin-3-yl)pyridin-2-amine]	–	–	< 0.5 nM	< 0.5 nM
COc1cn2ncc(-c3ccc(F)c(N[C@@H]4CCCNC4)n3)c2nc1C1CC1 [Compound 5, (R)-6-(5-cyclopropyl-6-methoxypyrazolo[1,5-a]pyrimidin-3-yl)-3-fluoro-N-(piperidin-3-yl)pyridin-2-amine]	–	–	9 nM	3 nM
COc1cn2ncc(-c3nc(N[C@H]4CNCC[C@@H]4F)ccc3F)c2nc1C1CC1 [Compound 3, 6-(5-cyclopropyl-6-methoxypyrazolo[1,5-a]pyrimidin-3-yl)-5-fluoro-N-((3S,4S)-4-fluoropiperidin-3-yl)pyridin-2-amine]	–	–	< 0.5 nM	< 0.5 nM
COc1cn2ncc(-c3nc(N[C@H]4CNCC[C@@H]4F)c(F)cc3F)c2nc1C1CC1 [Compound 22, 6-(5-cyclopropyl-6-methoxypyrazolo[1,5-a]pyrimidin-3-yl)-3,5-difluoro-N-((3S,4S)-4-fluoropiperidin-3-yl)pyridin-2-amine]	–	–	< 0.5 nM	< 0.5 nM
COc1cn2ncc(-c3nc(N[C@@H]4CCCNC4)ncc3F)c2nc1C(C)(C)O [Compound 4a, (R)-2-(3-(5-fluoro-2-(piperidin-3-ylamino)pyrimidin-4-yl)-6-methoxypyrazolo[1,5-a]pyrimidin-5-yl)propan-2-ol]	52 nM	3 nM	–	–
COc1cn2ncc(-c3ccnc(N[C@H]4CNC[C@@H]4F)n3)c2nc1C1CC1 [Compound 8a, 4-(5-cyclopropyl-6-methoxypyrazolo[1,5-a]pyrimidin-3-yl)-N-((3S,4S)-4-fluoropyrrolidin-3-yl)pyrimidin-2-amine]	11 nM	0.6 nM	–	–
COc1cn2ncc(-c3ccnc(N[C@H]4CNCC[C@@H]4F)n3)c2nc1C(C)(C)O [Compound 3a, 2-(3-(2-(((3S,4S)-4-fluoropiperidin-3-yl)amino)pyrimidin-4-yl)-6-methoxypyrazolo[1,5-a]pyrimidin-5-yl)propan-2-ol]	1510 nM	8 nM	–	–
COc1cn2ncc(-c3cncc(N[C@H]4CNCC[C@@H]4F)n3)c2nc1C1CC1 [Compound 12a, 6-(5-cyclopropyl-6-methoxypyrazolo[1,5-a]pyrimidin-3-yl)-N-((3S,4S)-4-fluoropiperidin-3-yl)pyrazin-2-amine]	1 nM	< 0.5 nM	–	–
COc1cn2ncc(-c3nc(N[C@H]4CNCC[C@@H]4F)c(F)cc3F)c2nc1C(C)(C)O [Compound 13, 2-(3-(3,5-difluoro-6-(((3S,4S)-4-fluoropiperidin-3-yl)amino)pyridin-2-yl)-6-methoxypyrazolo[1,5-a]pyrimidin-5-yl)propan-2-ol]	–	–	4 nM	< 0.5 nM
COc1cn2ncc(-c3nc(N[C@H]4CNCC[C@@H]4F)ncc3F)c2nc1C1CC1 [Compound 15a, 4-(5-cyclopropyl-6-methoxypyrazolo[1,5-a]pyrimidin-3-yl)-5-fluoro-N-((3S,4S)-4-fluoropiperidin-3-yl)pyrimidin-2-amine]	2 nM	< 0.5 nM	–	–
COc1cn2ncc(-c3cccc(N[C@H]4CNCC[C@@H]4F)n3)c2nc1C1CC1 [Compound 21, 6-(5-cyclopropyl-6-methoxypyrazolo[1,5-a]pyrimidin-3-yl)-N-((3S,4S)-4-fluoropiperidin-3-yl)pyridin-2-amine]	–	–	0.6 nM	< 0.5 nM
COc1cn2ncc(-c3cncc(N[C@@H]4CCCNC4)n3)c2nc1C1CC1 [Compound 11a, (R)-6-(5-cyclopropyl-6-methoxypyrazolo[1,5-a]pyrimidin-3-yl)-N-(piperidin-3-yl)pyrazin-2-amine]	2 nM	< 0.5 nM	–	–
COc1cn2ncc(-c3nc(N[C@@H]4CCCNC4)c(F)cc3F)c2nc1C(C)(C)O [Compound 11, (R)-2-(3-(3,5-difluoro-6-(piperidin-3-ylamino)pyridin-2-yl)-6-methoxypyrazolo[1,5-a]pyrimidin-5-yl)propan-2-ol]	–	–	5 nM	< 0.5 nM
